Data taken from patent publication US20070104778A1, “Controlled-release emulsion compositions” (priority 2005, published 2007).
Converted amounts (≈) assume the structure as drawn. Read-outs that look alike come from different tables or passages of the source.

Tests used:
[1] = Solubility of clozapine in different pH medium; format: physicochemical
[2] = Solubility of clozapine in solvent; format: physicochemical; details: organic solvent or mixture
[3] = Solubility of clozapine in organic acid and Vitamin E-TPGS + organic acid combination

With `CN1CCN(C2=Nc3cc(Cl)ccc3Nc3ccccc32)CC1` [Clozapine, clozapine] the solubility ([1]; DI water, water) was 11.8 µg/mL (≈ 36.1 µM), the “Solubility (pH dependent behavior)” value ([1]; low pH regions) was “fairly good solubility” and the solubility ([1]; pH 1.5 medium, pH 1.5, simulated gastric fluid) was 712 µg/mL (≈ 2180 µM). The solubility ([1]; pH 7.5 medium, pH 7.5, aqueous buffer) was 30.7 µg/mL (≈ 93.9 µM), the “Solubility (pH dependent behavior)” value ([1]; pH beyond 5) was “low solubility” and the solubility ([2]; 2-pyrrolidinone (Soluphor-P)) was greater than 250000 µg/mL. For the same compound, the solubility ([2]; N-methyl-2-pyrrolidinone (NMP)) was greater than 300000 µg/mL, the solubility (Bile extract 1% w/v surfactant solution, aqueous with cosolvent or surfactant or cyclodextrin) was 941 µg/mL (≈ 2880 µM) and the solubility (Brij 700 1% w/v surfactant solution, aqueous with cosolvent or surfactant or cyclodextrin) was 336 µg/mL (≈ 1030 µM). It also gave a solubility (Cremphor A25 1% w/v surfactant solution, aqueous with cosolvent or surfactant or cyclodextrin) of 506 µg/mL (≈ 1550 µM), a solubility (Cremphor A-6 1% w/v surfactant solution, aqueous with cosolvent or surfactant or cyclodextrin) of 11.5 µg/mL (≈ 35.2 µM) and a solubility (Cremphor RH 40 1% w/v surfactant solution, aqueous with cosolvent or surfactant or cyclodextrin) of 115 µg/mL (≈ 351 µM). It also gave a solubility (Labrasol 1% w/v surfactant solution, aqueous with cosolvent or surfactant or cyclodextrin) of 70.6 µg/mL (≈ 216 µM), a solubility (Lutrol F-68 1% w/v surfactant solution, aqueous with cosolvent or surfactant or cyclodextrin) of 15.3 µg/mL (≈ 46.8 µM) and a solubility (PEG 400 1% w/v surfactant solution) of 30.9 µg/mL (≈ 94.6 µM). For the same compound, the solubility (PEG 600 1% w/v surfactant solution) was 29.7 µg/mL (≈ 90.8 µM), the solubility (PEG distearate 1% w/v surfactant solution, aqueous with cosolvent or surfactant or cyclodextrin) was 952 µg/mL (≈ 2910 µM) and the solubility (PEG-diolaurate 1% w/v surfactant solution, aqueous with cosolvent or surfactant or cyclodextrin) was 104 µg/mL (≈ 320 µM). It also gave a solubility (PEG-monolaurate 1% w/v surfactant solution, aqueous with cosolvent or surfactant or cyclodextrin) of 372 µg/mL (≈ 1140 µM), a solubility (Sodium Dodecylate Sulfate (SDS) 1% w/v surfactant solution, aqueous with cosolvent or surfactant or cyclodextrin) of 1140 µg/mL (≈ 3480 µM) and a solubility (Sodium desoxycholate 1% w/v surfactant solution, aqueous with cosolvent or surfactant or cyclodextrin) of 342 µg/mL (≈ 1050 µM). For the same compound, the solubility (Solutol HS15 1% w/v surfactant solution, aqueous with cosolvent or surfactant or cyclodextrin) was 344 µg/mL (≈ 1050 µM), the solubility (Span 20 1% w/v surfactant solution, aqueous with cosolvent or surfactant or cyclodextrin) was 16.1 µg/mL (≈ 49.4 µM) and the solubility (Tween 20 1% w/v surfactant solution, aqueous with cosolvent or surfactant or cyclodextrin) was 158 µg/mL (≈ 485 µM). It also gave a solubility (Tween 80 1% w/v surfactant solution, aqueous with cosolvent or surfactant or cyclodextrin) of 399 µg/mL (≈ 1220 µM), a solubility ([3]; Alginic acid 1% w/v, aqueous buffer) of 9.99 µg/mL and a solubility ([3]; Ascorbic acid 1% w/v, aqueous buffer) of 259 µg/mL. It also gave a solubility ([3]; Citric acid (0.1M), aqueous buffer) of 35400 µg/mL, a solubility ([3]; Fumaric acid (0.01M), aqueous buffer) of 8880 µg/mL and a solubility ([3]; Oleinic acid 1% w/v, aqueous with cosolvent or surfactant or cyclodextrin) of 9.86 µg/mL. For the same compound, the “Solubility of Clozapine in Organic Acid” value ([3]; Stearic acid 1% w/v) was “Form conjugated compound” and the solubility ([3]; Succinic acid (0.05M), aqueous buffer) was 25700 µg/mL.
